Measured values from article PMC7529893, “Structural basis for substrate recognition and chemical inhibition of oncogenic MAGE ubiquitin ligases” (Nature Communications, 2020).

biological target: T1, MAGE-A11:PCF11 interaction (GST-MAGE-A11 and FAM-PCF11_4) (Homo sapiens, UniProt P43364); experiment: TR-FRET primary / single point screen at 15 µM; assay type: binding; details: single point TR-FRET screening of 797 quinoline compounds against MAGE-A11:PCF11
T1 construct: GST-MAGE-A11 MHD (human MAGE-A11 MHD amino acid 218-429); made in house; host or cells: E. coli BL21(DE3)
T1 sequence (P43364 218-429): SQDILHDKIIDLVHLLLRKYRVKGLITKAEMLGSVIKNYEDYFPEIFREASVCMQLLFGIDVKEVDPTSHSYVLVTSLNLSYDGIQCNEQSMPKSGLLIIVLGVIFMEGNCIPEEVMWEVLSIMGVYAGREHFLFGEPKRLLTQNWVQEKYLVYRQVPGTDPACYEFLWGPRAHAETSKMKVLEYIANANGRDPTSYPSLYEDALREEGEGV
Method in brief: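 TR-FRET 520/490 nm emission ratio was read after 90 min at room temperature. Wells held 5 nM GST-MAGE-A11, 5 nM Tb-anti-GST, 200 nM FAM-PCF11_4 and 15 µM compound in Tris pH 7.5 buffer with MgCl2, BSA and DTT. %Inhibition was scaled to DMSO and minus-MAGE-A11 controls.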

percent inhibition (TR-FRET)	SMILES
-363.307	COc1ccc2nc3cc(Cl)ccc3c(NCCCNCc3ccc4c(c3)OCO4)c2c1 [SJ000361085]
-432.435	COc1ccc2nc3cc(Cl)ccc3c(NCCCNCc3ccccc3)c2c1 [SJ000361086]
-502.358	COc1ccc2nc3cc(Cl)ccc3c(NCCCNCC3CC3)c2c1 [SJ000361087]
-453.536	COc1ccc2nc3cc(Cl)ccc3c(NCCCNCc3cccs3)c2c1 [SJ000361088]
-229.025	COc1ccc2nc3cc(Cl)ccc3c(NCCCNCc3ccc(C)o3)c2c1 [SJ000361089]
-411.15	COc1ccc2nc3cc(Cl)ccc3c(NCCCNCC3CCCCC3)c2c1 [SJ000361090]
-327.201	COc1ccc2nc3cc(Cl)ccc3c(NCCCNCc3cc(F)ccc3F)c2c1 [SJ000361091]
-427.368	CCC(CC)CNCCCNc1c2ccc(Cl)cc2nc2ccc(OC)cc12 [SJ000361092]
-451.494	CCC(C)CNCCCNc1c2ccc(Cl)cc2nc2ccc(OC)cc12 (centres unmarked) [SJ000361093]
-321.32	COc1ccc2nc3cc(Cl)ccc3c(NCCCNCc3sccc3C)c2c1 [SJ000361094]
-169.468	COc1ccc2nc3cc(Cl)ccc3c(NCCCNCc3ccccc3C(F)(F)F)c2c1 [SJ000361095]
-498.476	CCCNCCCNc1c2ccc(Cl)cc2nc2ccc(OC)cc12 [SJ000361096]
-281.691	CCCCCCNCCCNc1c2ccc(Cl)cc2nc2ccc(OC)cc12 [SJ000361097]
-514.546	COc1ccc2nc3cc(Cl)ccc3c(NCCCNCCC(C)SC)c2c1 (centres unmarked) [SJ000361098]
-9.945	Clc1ccc2c(NCCCCN(Cc3ccccc3)Cc3ccncc3)ccnc2c1 [SJ000361190]
23.4378	Cc1ccsc1CN(CCCCNc1ccnc2cc(Cl)ccc12)Cc1ccccc1 [SJ000361191]
27.8155	FC(F)(F)c1ccccc1CN(CCCCNc1ccnc2cc(Cl)ccc12)Cc1ccccc1 [SJ000361192]
26.0268	Cc1cc(C)c(CN(CCCCNc2ccnc3cc(Cl)ccc23)Cc2ccccc2)c(C)c1 [SJ000361193]
41.9261	Clc1ccc2c(NCCCCN(Cc3ccccc3)CC3CCCCC3)ccnc2c1 [SJ000361194]
25.5382	CCC(CC)CN(CCCCNc1ccnc2cc(Cl)ccc12)Cc1ccccc1 [SJ000361195]
19.0968	CCCCCN(CCCCNc1ccnc2cc(Cl)ccc12)Cc1ccccc1 [SJ000361196]

same assay, conditions: single point TR-FRET screening of quinoline compounds against MAGE-A11:PCF11; 15 µM

percent inhibition (TR-FRET)	SMILES
-13.1805	CCCN(CCCNc1ccnc2cc(Cl)ccc12)CCOCc1ccccc1 [SJ000357577]
25.6873	CC(C)(C)CCN(CCCNc1ccnc2cc(Cl)ccc12)Cc1ccccc1 [SJ000357578]
19.3068	CCCCN(CCCNc1ccnc2cc(Cl)ccc12)Cc1ccccc1 [SJ000357579]
14.4057	Clc1ccc2c(NCCCN(CCc3ccccc3)Cc3ccccc3)ccnc2c1 [SJ000357580]
13.2411	Clc1ccc2c(NCCCN(CCOCc3ccccc3)Cc3ccccc3)ccnc2c1 [SJ000357583]
18.1434	CCCN(CCCNc1ccnc2cc(Cl)ccc12)Cc1cccc2c1OCO2 [SJ000357594]
-21.8698	CCCN(CCCNc1ccnc2cc(Cl)ccc12)Cc1ccccc1OC(F)(F)F [SJ000357595]
15.9573	CCCN(CCCNc1ccnc2cc(Cl)ccc12)Cc1cc(F)cc(F)c1O [SJ000357597]
3.49	Clc1ccc2c(NCCCN(Cc3ccccc3)Cc3cccc4c3OCO4)ccnc2c1 [SJ000357598]
19.7634	FC(F)(F)Oc1ccccc1CN(CCCNc1ccnc2cc(Cl)ccc12)Cc1ccccc1 [SJ000357599]
0.9854	COc1ccc2nc3cc(Cl)ccc3c(NCCCNCc3ccc[nH]3)c2c1 [SJ000361084]
-3.728	COc1ccc2nc3cc(Cl)ccc3c(NCCCNCc3c4ccccc4cc4ccccc34)c2c1 [SJ000361099]
11.4651	Clc1ccc2c(NCCCNCC3CC3)ccnc2c1 [SJ000361101]
15.626	Clc1ccc2c(NCCCNCC3CCCCC3)ccnc2c1 [SJ000361102]
16.5535	CCC(CC)CNCCCNc1ccnc2cc(Cl)ccc12 [SJ000361103]
9.822	CCC(C)CNCCCNc1ccnc2cc(Cl)ccc12 (centres unmarked) [SJ000361104]
41.6887	FC(F)(F)c1ccc2c(NCCCNCc3ccc[nH]3)ccnc2c1 [SJ000361105]
22.8076	FC(F)(F)c1ccc2c(NCCCNCC3CC3)ccnc2c1 [SJ000361108]
14.4523	Cc1ccc(CNCCCNc2ccnc3cc(C(F)(F)F)ccc23)o1 [SJ000361109]
27.1172	FC(F)(F)c1ccc2c(NCCCNCC3CCCCC3)ccnc2c1 [SJ000361110]
24.3255	CCC(CC)CNCCCNc1ccnc2cc(C(F)(F)F)ccc12 [SJ000361111]
18.4697	CCC(C)CNCCCNc1ccnc2cc(C(F)(F)F)ccc12 (centres unmarked) [SJ000361112]
18.0466	FC(F)(F)c1ccc2c(NCCCNCc3ccco3)ccnc2c1 [SJ000361113]
9.7847	CCCNCCCNc1ccnc2cc(Cl)ccc12 [SJ000361119]
22.2507	CCCCCCNCCCNc1ccnc2cc(Cl)ccc12 [SJ000361120]
13.499	CSC(C)CCNCCCNc1ccnc2cc(Cl)ccc12 (centres unmarked) [SJ000361121]

percent inhibition (TR-FRET)	SMILES
12.8181	CCCNCCCNc1ccnc2cc(C(F)(F)F)ccc12 [SJ000361123]
24.4617	CSC(C)CCNCCCNc1ccnc2cc(C(F)(F)F)ccc12 (centres unmarked) [SJ000361125]
14.7648	Clc1ccc2c(NCCCN(Cc3ccccc3)Cc3ccccc3)ccnc2c1 [SJ000361166]
19.2696	Oc1ccccc1CN(CCCNc1ccnc2cc(Cl)ccc12)Cc1ccccc1 [SJ000361167]
2.509	FC(F)(F)c1ccccc1CN(CCCNc1ccnc2cc(Cl)ccc12)Cc1ccccc1 [SJ000361168]
31.1941	Cc1cc(C)c(CN(CCCNc2ccnc3cc(Cl)ccc23)Cc2ccccc2)c(C)c1 [SJ000361169]
12.8437	Clc1ccc2c(NCCCN(Cc3ccccc3)Cc3ccoc3)ccnc2c1 [SJ000361170]
28.213	Clc1ccc2c(NCCCN(Cc3ccccc3)CC3CCCCC3)ccnc2c1 [SJ000361171]
22.9132	CCC(CC)CN(CCCNc1ccnc2cc(Cl)ccc12)Cc1ccccc1 [SJ000361172]
26.5568	CCCCCN(CCCNc1ccnc2cc(Cl)ccc12)Cc1ccccc1 [SJ000361173]
27.5505	Fc1ccc(CN(CCCNc2ccnc3cc(Cl)ccc23)Cc2ccccc2)cc1F [SJ000361174]
0.9627	Fc1ccccc1CN(CCCNc1ccnc2cc(Cl)ccc12)Cc1ccccc1 [SJ000361175]
20.3571	Fc1cccc(CN(CCCNc2ccnc3cc(Cl)ccc23)Cc2ccccc2)c1 [SJ000361176]
16.421	O=[N+]([O-])c1ccccc1CN(CCCNc1ccnc2cc(Cl)ccc12)Cc1ccccc1 [SJ000361177]
17.0172	O=[N+]([O-])c1cccc(CN(CCCNc2ccnc3cc(Cl)ccc23)Cc2ccccc2)c1 [SJ000361178]
20.1971	O=[N+]([O-])c1ccc(CN(CCCNc2ccnc3cc(Cl)ccc23)Cc2ccccc2)cc1 [SJ000361179]
9.598	O=C(O)c1ccccc1CN(CCCNc1ccnc2cc(Cl)ccc12)Cc1ccccc1 [SJ000361180]
26.2256	Clc1ccc2c(NCCCN(Cc3ccccc3)Cc3cccc4ccccc34)ccnc2c1 [SJ000361181]
22.052	Clc1ccc2c(NCCCN(Cc3ccccc3)Cc3ccc4ccccc4c3)ccnc2c1 [SJ000361182]
6.02	Cc1cccc(CN(CCCNc2ccnc3cc(Cl)ccc23)Cc2ccccc2)c1 [SJ000361183]
25.4969	Clc1ccc(CN(CCCNc2ccnc3cc(Cl)ccc23)Cc2ccccc2)c(Cl)c1 [SJ000361184]
6.074	Clc1ccc2c(NCCCN(CCCc3ccccc3)Cc3ccccc3)ccnc2c1 [SJ000361185]
29.5992	CCC(C)CN(CCCNc1ccnc2cc(Cl)ccc12)Cc1ccccc1 (centres unmarked) [SJ000361186]
20.217	Cc1ccc(C)c(CN(CCCNc2ccnc3cc(Cl)ccc23)Cc2ccccc2)c1 [SJ000361187]
-9.05	COc1cccc(CN(CCCNc2ccnc3cc(Cl)ccc23)Cc2ccccc2)c1 [SJ000361188]
-40.7502	CCCCCCN(CCCNc1ccnc2cc(Cl)ccc12)Cc1ccccc1 [SJ000361189]

SMILES	percent inhibition (TR-FRET)
CCCCCCNCCCNc1ccnc2cc(C(F)(F)F)ccc12 [SJ000361124]	31.6112
